From patent US12385058B2, “Herbicide tolerance protein, encoding gene thereof and use thereof” (Beijing Dabeinong Biotechnology Co., Ltd., priority 2018, dated 2025)

Tested on: maize plants
Experiment: Herbicide tolerance of transgenic maize T1 plants (spraying, damage degree)
Assay type: in vivo
Settings: 144 g ai/ha (8x Tri.)
Experimental: The degree of damage caused by the herbicide was measured for each plant according to the plant growth status 3 days after spraying (3 DAT), 7 days after spraying (7 DAT), 14 days after spraying (14 DAT) and 21 days after spraying (21 DAT): a growth status equivalent to that of the untreated plants is defined as having a damage degree of 0%; the case where leaves are locally chlorotic and yellow but the normal plant growth is substantially not affected is defined as having a damage degree of 50%; and the case where the whole plant is purple and dying is defined as having a damage degree of 100%. The maize plants into which the ALT02M1-02 nucleotide sequence was introduced were of three strains in total (S15, S16 and S17), the maize plants into which the ALT02M2-02 nucleotide sequence was introduced were of three strains in total (S18, S19 and S20), the maize plants into which the ALT02M3-02 nucleotide sequence was introduced were of three strains in total (S21, S22 and S23), the maize plants into which the ALT02-02 nucleotide sequence was introduced were of three strains in total (S24, S25 and S26), the control maize plants were of two strains in total (S27 and S28), and the wild-type maize plants were of one strain in total (CK2); and 10-15 plants were selected from each strain and tested.

[1] = maize genotype CK2 (wild-type maize plants)
[2] = maize genotype S15 (ALT02M1-02 introduced)
[3] = maize genotype S16 (ALT02M1-02 introduced)
[4] = maize genotype S17 (ALT02M1-02 introduced)
[5] = maize genotype S18 (ALT02M2-02 introduced)
[6] = maize genotype S19 (ALT02M2-02 introduced)
[7] = maize genotype S20 (ALT02M2-02 introduced)
[8] = maize genotype S21 (ALT02M3-02 introduced)
[9] = maize genotype S22 (ALT02M3-02 introduced)
[10] = maize genotype S23 (ALT02M3-02 introduced)
[11] = maize genotype S24 (ALT02-02 introduced)
[12] = maize genotype S25 (ALT02-02 introduced)
[13] = maize genotype S26 (ALT02-02 introduced)
[14] = maize genotype S27 (control maize plants, DBN100830N)
[15] = maize genotype S28 (control maize plants, DBN100830N)

methyl 2-[N-(4-methoxy-6-methyl-1,3,5-triazin-2-yl)-N-methylcarbamoylaminosulfonyl]benzoate [tribenuron-methyl]
Average damage % 3DAT [1]: 46% | Average damage % 7DAT [1]: 86% | Average damage % 14DAT [1]: 100% | Average damage % 21DAT [1]: 100% | Average damage % 3DAT [2]: 5% | Average damage % 7DAT [2]: 0% | Average damage % 14DAT [2]: 0% | Average damage % 21DAT [2]: 0% | Average damage % 3DAT [3]: 6% | Average damage % 7DAT [3]: 0% | Average damage % 14DAT [3]: 0% | Average damage % 21DAT [3]: 0% | Average damage % 3DAT [4]: 3% | Average damage % 7DAT [4]: 0% | Average damage % 14DAT [4]: 0% | Average damage % 21DAT [4]: 0% | Average damage % 3DAT [5]: 0% | Average damage % 7DAT [5]: 0% | Average damage % 14DAT [5]: 0% | Average damage % 21DAT [5]: 0% | Average damage % 3DAT [6]: 0% | Average damage % 7DAT [6]: 0% | Average damage % 14DAT [6]: 0% | Average damage % 21DAT [6]: 0% | Average damage % 3DAT [7]: 0% | Average damage % 7DAT [7]: 0% | Average damage % 14DAT [7]: 0% | Average damage % 21DAT [7]: 0% | Average damage % 3DAT [8]: 3% | Average damage % 7DAT [8]: 0% | Average damage % 14DAT [8]: 0% | Average damage % 21DAT [8]: 0% | Average damage % 3DAT [9]: 2% | Average damage % 7DAT [9]: 0% | Average damage % 14DAT [9]: 0% | Average damage % 21DAT [9]: 0% | Average damage % 3DAT [10]: 0% | Average damage % 7DAT [10]: 0% | Average damage % 14DAT [10]: 0% | Average damage % 21DAT [10]: 0% | Average damage % 3DAT [11]: 14% | Average damage % 7DAT [11]: 5% | Average damage % 14DAT [11]: 0% | Average damage % 21DAT [11]: 0% | Average damage % 7DAT [12]: 4% | Average damage % 14DAT [12]: 0% | Average damage % 21DAT [12]: 0% | Average damage % 3DAT [13]: 20% | Average damage % 7DAT [13]: 7% | Average damage % 14DAT [13]: 0% | Average damage % 21DAT [13]: 0% | Average damage % 3DAT [14]: 61% | Average damage % 7DAT [14]: 82% | Average damage % 14DAT [14]: 100% | Average damage % 21DAT [14]: 100% | Average damage % 3DAT [15]: 53% | Average damage % 7DAT [15]: 78% | Average damage % 14DAT [15]: 100% | Average damage % 21DAT [15]: 100%
